In ChEMBL document CHEMBL1201862, “PubChem BioAssay data set” (2004):
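Following 48 hours of exposure in 96-well plates, responses at five concentrations were used to interpolate endpoints linearly. At the GI50, growth is halved.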 The source made the active and inactive calls. Cut-off read from the data, not from the text of the source: active = GI50 up to about 1.1 µM and inactive = higher.

Tests used:
Assay in all cases: NCI tumour cell line growth inhibition, 48 h
A549 = tested on: A549
NCI-H23 = tested on: NCI-H23
HL-60 = tested on: HL-60
M14 = tested on: M14
SK-MEL-5 = tested on: SK-MEL-5
SK-MEL-2 = tested on: SK-MEL-2
SF-539 = tested on: SF-539
SW-620 = tested on: SW-620
SR = tested on: SR
MDA-N = tested on: MDA-N
MDA-MB-231 = tested on: MDA-MB-231
T47D = tested on: T47D
OVCAR-5 = tested on: OVCAR-5
UACC-62 = tested on: UACC-62
SNB-75 = tested on: SNB-75
SNB-19 = tested on: SNB-19
MOLT-4 = tested on: MOLT-4
EKVX = tested on: EKVX
CCRF-CEM = tested on: CCRF-CEM

Measured: GI50

COC(=O)c1nn2ccc3ccccc3c2c1C(=O)OC
inactive: A549 > 100 µM | NCI-H23 > 100 µM | HL-60 21.3 µM | M14 33 µM | SK-MEL-5 37 µM | SK-MEL-2 > 100 µM | SF-539 > 100 µM | SW-620 > 100 µM | SR 41.1 µM | MDA-N 34.8 µM | MDA-MB-231 53 µM | T47D > 100 µM | OVCAR-5 > 100 µM | UACC-62 36.6 µM | SNB-75 72.8 µM | SNB-19 > 100 µM | MOLT-4 39.9 µM | EKVX 2.37 µM

CCCCNC(=S)Nc1nc(C(=O)NNC(=O)c2ccccc2)cs1
inactive: CCRF-CEM 27.9 µM | A549 20.4 µM | NCI-H23 > 10 µM | HL-60 96.6 µM | M14 14.9 µM | SK-MEL-5 10.8 µM | SK-MEL-2 19.6 µM | SW-620 14 µM | SR 29.6 µM | MDA-N 17.5 µM | MDA-MB-231 12.5 µM | T47D 11.5 µM | OVCAR-5 17.6 µM | UACC-62 17.6 µM | SNB-75 32.6 µM | MOLT-4 20.5 µM | EKVX 12.8 µM

Cc1cccc(-n2c(C)nc3ccc(NC(=S)Nc4ccccc4)cc3c2=O)c1
inactive: NCI-H23 64.9 µM | HL-60 37.4 µM | SK-MEL-5 18.2 µM | SK-MEL-2 39 µM | SW-620 > 100 µM | SR > 100 µM | MDA-N 55.6 µM | MDA-MB-231 70.1 µM | T47D 38 µM | OVCAR-5 > 100 µM | UACC-62 50.1 µM | SNB-75 > 100 µM | SNB-19 > 100 µM | MOLT-4 28.4 µM | EKVX 55.7 µM

O=C(O)CCCc1ccc2c(c1)CC1(C2)Cc2cc3c(cc2C1)CCCC3
inactive: CCRF-CEM 11.6 µM | A549 6.43 µM | NCI-H23 23.6 µM | HL-60 11.6 µM | M14 15.2 µM | SK-MEL-5 13.8 µM | SK-MEL-2 17.5 µM | SF-539 2.06 µM | SR 18.4 µM | MDA-N 19.1 µM | MDA-MB-231 3.24 µM | T47D 35.6 µM | OVCAR-5 19.9 µM | UACC-62 > 100 µM | MOLT-4 1.52 µM | EKVX > 100 µM

C[C@]12CC[C@H]3[C@@H](CC=C4C[C@@H](N5CCCC5)CC[C@@]43C)[C@@H]1C[C@H](N1CCCCC1)[C@@H]2O
inactive: CCRF-CEM > 100 µM | A549 > 100 µM | NCI-H23 > 100 µM | HL-60 28.2 µM | M14 20.3 µM | SK-MEL-5 51.1 µM | SF-539 39.7 µM | SW-620 > 100 µM | SR 11.4 µM | MDA-N 61.1 µM | MDA-MB-231 > 100 µM | T47D > 100 µM | OVCAR-5 99.8 µM | UACC-62 > 100 µM | SNB-75 > 100 µM | SNB-19 > 100 µM | MOLT-4 > 100 µM | EKVX > 100 µM

Cc1cccc2c1Oc1cc(Cl)ccc1C2NC(=O)CCN1CCN(CCO)CC1 (centres undefined)
inactive: CCRF-CEM 17.7 µM | A549 11.5 µM | NCI-H23 23.1 µM | HL-60 9.46 µM | M14 15.5 µM | SK-MEL-5 14 µM | SF-539 13.1 µM | SW-620 18.3 µM | SR 21.8 µM | MDA-N 4.25 µM | MDA-MB-231 3.69 µM | T47D 17.4 µM | OVCAR-5 21.1 µM | UACC-62 5.66 µM | SNB-75 4.61 µM | SNB-19 22 µM | MOLT-4 14.4 µM | EKVX 20.8 µM

Cc1cn(C2CCC(/C=N\O)O2)c(=O)[nH]c1=O (centres undefined)
inactive: CCRF-CEM > 100 µM | A549 > 100 µM | NCI-H23 > 100 µM | M14 > 100 µM | SK-MEL-5 > 100 µM | SK-MEL-2 > 100 µM | SF-539 > 100 µM | SW-620 > 100 µM | SR > 100 µM | MDA-N > 100 µM | MDA-MB-231 > 100 µM | T47D > 100 µM | OVCAR-5 > 100 µM | UACC-62 > 100 µM | SNB-75 > 100 µM | SNB-19 > 100 µM | MOLT-4 > 100 µM | EKVX > 100 µM

CCn1c(-c2ccc(F)cc2)nc2c1C(=O)c1ccccc1C2=O
inactive: CCRF-CEM > 100 µM | A549 > 100 µM | NCI-H23 > 100 µM | HL-60 > 100 µM | M14 71 µM | SK-MEL-5 > 100 µM | SF-539 > 100 µM | SW-620 > 100 µM | SR > 100 µM | MDA-N > 100 µM | MDA-MB-231 > 100 µM | T47D > 100 µM | OVCAR-5 > 100 µM | UACC-62 > 100 µM | SNB-75 > 100 µM | SNB-19 > 100 µM | MOLT-4 > 100 µM | EKVX > 100 µM

COC(=O)c1ccccc1/C=C1/Cc2ccccc2C1=O
inactive: CCRF-CEM 31.3 µM | A549 50.7 µM | NCI-H23 68.4 µM | HL-60 30.1 µM | SK-MEL-5 18.6 µM | SF-539 > 100 µM | SW-620 28.3 µM | SR 22.2 µM | MDA-N 55.8 µM | MDA-MB-231 44.7 µM | T47D 19.6 µM | OVCAR-5 33.3 µM | UACC-62 36.1 µM | SNB-75 > 100 µM | MOLT-4 24.4 µM | EKVX 63.2 µM

CO[C@@H]1C[C@H]2[C@@H]3CC[C@H]([C@@H](C)CO)[C@@]3(C)CC[C@@H]2[C@@]2(C)CC[C@H]3C[C@]312
inactive: CCRF-CEM 40.2 µM | A549 36 µM | NCI-H23 40.7 µM | HL-60 25.2 µM | M14 23.3 µM | SK-MEL-5 16.7 µM | SF-539 43.1 µM | SW-620 31.9 µM | SR 31.6 µM | MDA-N 34.7 µM | MDA-MB-231 28.3 µM | T47D 20 µM | OVCAR-5 > 100 µM | SNB-75 74.3 µM | SNB-19 53.6 µM | MOLT-4 31.1 µM | EKVX 27.2 µM

CC(=O)OC(C)(C)CCC(=O)[C@](C)(O)[C@H]1[C@H](O)C[C@@]2(C)[C@@H]3CCc4c(cc(OC5OC(CO)C(O)C(O)C5O)c(O)c4C)C3(C)C(=O)C[C@]12C (some centres undefined)
inactive: CCRF-CEM > 100 µM | A549 > 100 µM | NCI-H23 > 100 µM | M14 > 100 µM | SK-MEL-5 > 100 µM | SK-MEL-2 > 100 µM | SF-539 > 100 µM | SW-620 > 100 µM | SR > 100 µM | MDA-N > 100 µM | MDA-MB-231 > 100 µM | T47D > 100 µM | OVCAR-5 > 100 µM | UACC-62 > 100 µM | SNB-75 > 100 µM | SNB-19 > 100 µM | MOLT-4 > 100 µM | EKVX > 100 µM
